Source: PMC4335020, “Single Oral Dose Pharmacokinetics of Decursin and Decursinol Angelate in Healthy Adult Men and Women” (PLoS ONE, 2015)
Read-outs that look alike come from different tables or passages of the source.

Experiment: Single oral dose human plasma pharmacokinetics of D, DA and DOH after Cogni.Q
Format: in vivo
Text: Ten healthy male and 10 female subjects were recruited by public announcement in Amarillo, TX, from January 2013 to April 2013 (see Fig. 1 CONSORT diagram). The sample size for each gender was chosen without power calculation due to the lack of prior knowledge of PK parameter variance in humans. After receiving informed consent verbally and in writing, the health status of each candidate was confirmed by health questionnaire, plasma biochemistry (hepatic and renal functions), complete blood cell count (CBC), and a physical examination by a participating academic physician. Subjects with diabetes, or pregnant, perinatal and breastfeeding women were excluded. For the 48 hours preceding study visit until the final blood draw, all subjects were instructed to avoid taking any prescription or nonprescription drugs, vitamins, and herbal/dietary supplements. Each subject was compensated for participating in the study per TTUHSC IRB approved rate.
Eligible subjects arrived at our clinical facility at 0700 (7:00 am) on the test day after a fast beginning at 2200 (10:00 pm) the previous night. After a brief review of vital signs, the nurse placed an intravenous (IV) line with saline drip in one arm of each subject. A baseline pre-dose (hour 0) blood sample was drawn through the IV line; after that subjects swallowed four Cogni.Q vegicaps with 240 mL of water at hour 0 under direct supervision. Subjects stayed at the clinical facility in their room for the next 12 hours, returning at 24 and 48 hours. Blood was drawn at baseline (hour 0) and at 0.5, 1, 2, 3, 4, 6, 8, 12, 24 and 48 hours after dosing into Vacutainer Blood Collection Tube (Becton-Dickinson, Franklin Lakes, NJ. Product Number: 367874, Sodium heparin was used as anti-coagulant). Water was allowed as desired except for within the first hour after Cogni.Q consumption. All subjects received standardized meals at post-dose hours 4.5 and 9.5 but no food was allowed for at least the first 4 hours post-dose.
Plasma was prepared by centrifuging the heparinized blood at 1000 g for 15 minutes at room temperature. Urine samples (40mL) were collected within time spans of 0–4, 4–8, 8–12 and 12–24 hours (total volume of urine was recorded). All plasma and urine samples were put on dry ice immediately and then stored at -80°C freezer until analysis.
Plasma samples were extracted with a validated solid supported liquid extraction (SLE) method facilitated with a positive pressure manifold (Biotage, Charlotte, NC). Briefly, 100 μL of plasma sample was spiked with 5 μL of 10 ng/μL prednisolone (IS), diluted with 200 μL of LC-MS grade water, mixed and loaded onto ISOLUTE SLE+ 400 μL Array Well cartridges (Biotage, Charlotte, NC). A pulse of minimum positive pressure was applied to facilitate the samples absorption into the cartridges. After the samples were allowed to absorb for 5 min, the compounds were eluted with 2×500 μL tert-butyl methyl ether. The eluent was dried in a Speedvac and the resulting residue was reconstituted in 50 μL of methanol for UHPLC-MS/MS analysis.
Eight-point calibration curves were constructed for D, DA and DOH, at concentrations of 0.1, 0.5, 1, 5, 10, 20, 50 and 100 μg/L for D and DA, and at concentrations of 1, 5, 10, 50, 100, 200, 500 and 1000 μg/L for DOH, respectively. The linear range was 0.1–100 μg/L (0.3–300 nmol/L), 0.1–100 μg/L (0.3–300 nmol/L) and 1–1000 μg/L (4–4000 nmol/L) for D, DA and DOH, respectively. The inter- and intra-assay CV were lower than 6.5% and the accuracy was between 90–105%. Calibration curve was run for each batch of samples analyzed. The mean calibration curve correlation coefficient (r) for D, DA and DOH was 0.999, 0.999 and 0.998, respectively (data from 7–10 calibration curves). In addition, 70% of the plasma samples were extracted and analyzed twice, the data from two replicate analyses were nearly identical and combined for final data analyses and presentation. […]

With CC(C)=CC(=O)O[C@H]1Cc2cc3ccc(=O)oc3cc2OC1(C)C [D, decursin] the Cmax (both sexes, human, plasma, oral, 4 Cogni.Q vegicaps, n=20 (S1 Table), read-out: Cmax, nM, Grand Mean) was 5.3 nM, the Tmax (both sexes, human, plasma, oral, 4 Cogni.Q vegicaps, n=20 (S1 Table), read-out: Tmax, h, Grand Mean) was 2.1 h and the half-life (both sexes, human, plasma, oral, all subjects, outliers excluded (S1 Table), read-out: Terminal t1/2, h, Grand Mean (converted)) was 17.4 h. For the same molecule, the AUC(0-t) (both sexes, human, plasma, oral, n=20 (S1 Table), read-out: AUC0-48h, Grand Mean) was 37.1 nmol·h/L, the AUC(0-t) (both sexes, human, plasma, po, all human subjects n = 20, single oral dose Cogni.Q, plasma (Table 2), read-out: AUC0–48h, nmol/L, Mean (SD)) was 37.1 nmol·h/L and the AUC(0-t) (both sexes, human, twenty healthy subjects, single oral dose Cogni.Q, plasma (abstract), read-out: mean area under the curve (AUC0-48h)) was 37 nmol·h/L. For the same molecule, the Tmax (both sexes, all human subjects n = 20, single oral dose 4 Cogni.Q vegicaps (119 mg D, 77 mg DA), plasma, read-out: Tmax, h, Mean (SD)) was 2.1 h, the half-life (both sexes, all human subjects, four outlier subjects excluded, single oral dose Cogni.Q, plasma, read-out: Terminal t1/2, h, Mean (SD) (converted)) was 17.4 h and the AUC(0-t) (female, human, plasma, oral, 4 Cogni.Q vegicaps, Women n=10 (S1 Table), read-out: AUC0-48h, Mean, F) was 45.7 nmol·h/L. The Cmax (female, human, plasma, oral, 4 Cogni.Q vegicaps, Women n=10 (S1 Table), read-out: Cmax, nM, Mean, F) was 5.37 nM, the Tmax (female, human, plasma, oral, Women n=10 (S1 Table), read-out: Tmax, h, Mean, F) was 2.4 h and the half-life (female, human, plasma, oral, Women, outliers excluded (S1 Table), read-out: Terminal t1/2, h, Mean, F (converted)) was 17 h. For the same molecule, the AUC(0-t) (female, human, plasma, po, Women N = 10, single oral dose Cogni.Q, plasma, read-out: AUC0–48h, h.nmol/L Mean (SD)) was 45.7 nmol·h/L, the Cmax (female, human, plasma, po, Women N = 10, single oral dose Cogni.Q, plasma, read-out: Cmax, nmol/L, Mean (SD)) was 5.4 nM and the Tmax (female, human, plasma, po, Women N = 10, single oral dose Cogni.Q, plasma, read-out: Tmax, h, Mean (SD)) was 2.4 h. The half-life (female, human, plasma, po, Women, outlier subjects excluded, single oral dose Cogni.Q, plasma, read-out: T1/2, h, terminal Mean (SD) (converted)) was 17 h, the half-life (human, plasma, oral, 4 Cogni.Q vegicaps, subject S1 (115 lb), outlier, excluded from means, read-out: Terminal t1/2, h (converted)) was 173 h and the AUC(0-t) (human, plasma, oral, 4 Cogni.Q vegicaps, subject S1 (115 lb), read-out: AUC0-48h) was 45 nmol·h/L. It also gave a Cmax (human, plasma, oral, 4 Cogni.Q vegicaps, subject S1 (115 lb), read-out: Cmax) of 4.7 nM, a Tmax (human, plasma, oral, 4 Cogni.Q vegicaps, subject S1 (115 lb), read-out: Tmax) of 1 h and an AUC(0-t) (human, plasma, oral, 4 Cogni.Q vegicaps, subject S2 (194 lb), read-out: AUC0-48h) of 14.8 nmol·h/L. For the same molecule, the Cmax (human, plasma, oral, 4 Cogni.Q vegicaps, subject S2 (194 lb), read-out: Cmax) was 2 nM, the half-life (human, plasma, oral, 4 Cogni.Q vegicaps, subject S2 (194 lb), read-out: Terminal t1/2, h (converted)) was 16.9 h and the Tmax (human, plasma, oral, 4 Cogni.Q vegicaps, subject S2 (194 lb), read-out: Tmax) was 2 h. The half-life (human, plasma, oral, 4 Cogni.Q vegicaps, subject S3 (170 lb), outlier, excluded from means, read-out: Terminal t1/2, h (converted)) was 69.6 h, the AUC(0-t) (human, plasma, oral, 4 Cogni.Q vegicaps, subject S3 (170 lb), read-out: AUC0-48h) was 9.8 nmol·h/L and the Cmax (human, plasma, oral, 4 Cogni.Q vegicaps, subject S3 (170 lb), read-out: Cmax) was 1.6 nM. The Tmax (human, plasma, oral, 4 Cogni.Q vegicaps, subject S3 (170 lb), read-out: Tmax) was 4 h, the AUC(0-t) (human, plasma, oral, 4 Cogni.Q vegicaps, subject S4 (170 lb), read-out: AUC0-48h) was 119 nmol·h/L and the Cmax (human, plasma, oral, 4 Cogni.Q vegicaps, subject S4 (170 lb), read-out: Cmax) was 13.2 nM. The half-life (human, plasma, oral, 4 Cogni.Q vegicaps, subject S4 (170 lb), read-out: Terminal t1/2, h (converted)) was 10.8 h, the Tmax (human, plasma, oral, 4 Cogni.Q vegicaps, subject S4 (170 lb), read-out: Tmax) was 2 h and the AUC(0-t) (human, plasma, oral, 4 Cogni.Q vegicaps, subject S5 (161 lb), read-out: AUC0-48h) was 34.3 nmol·h/L. It also gave a Cmax (human, plasma, oral, 4 Cogni.Q vegicaps, subject S5 (161 lb), read-out: Cmax) of 2 nM, a half-life (human, plasma, oral, 4 Cogni.Q vegicaps, subject S5 (161 lb), read-out: Terminal t1/2, h (converted)) of 22.8 h and a Tmax (human, plasma, oral, 4 Cogni.Q vegicaps, subject S5 (161 lb), read-out: Tmax) of 1 h. The AUC(0-t) (human, plasma, oral, 4 Cogni.Q vegicaps, subject S6 (120 lb), read-out: AUC0-48h) was 94 nmol·h/L, the Cmax (human, plasma, oral, 4 Cogni.Q vegicaps, subject S6 (120 lb), read-out: Cmax) was 13.4 nM and the half-life (human, plasma, oral, 4 Cogni.Q vegicaps, subject S6 (120 lb), read-out: Terminal t1/2, h (converted)) was 12.8 h. It also gave a Tmax (human, plasma, oral, 4 Cogni.Q vegicaps, subject S6 (120 lb), read-out: Tmax) of 3 h, an AUC(0-t) (human, plasma, oral, 4 Cogni.Q vegicaps, subject S7 (180 lb), read-out: AUC0-48h) of 23.3 nmol·h/L and a Cmax (human, plasma, oral, 4 Cogni.Q vegicaps, subject S7 (180 lb), read-out: Cmax) of 3.6 nM. The half-life (human, plasma, oral, 4 Cogni.Q vegicaps, subject S7 (180 lb), read-out: Terminal t1/2, h (converted)) was 24.7 h, the Tmax (human, plasma, oral, 4 Cogni.Q vegicaps, subject S7 (180 lb), read-out: Tmax) was 4 h and the AUC(0-t) (human, plasma, oral, 4 Cogni.Q vegicaps, subject S8 (160 lb), read-out: AUC0-48h) was 79.2 nmol·h/L. For the same molecule, the Cmax (human, plasma, oral, 4 Cogni.Q vegicaps, subject S8 (160 lb), read-out: Cmax) was 9.6 nM, the half-life (human, plasma, oral, 4 Cogni.Q vegicaps, subject S8 (160 lb), read-out: Terminal t1/2, h (converted)) was 9.9 h and the Tmax (human, plasma, oral, 4 Cogni.Q vegicaps, subject S8 (160 lb), read-out: Tmax) was 3 h. The AUC(0-t) (human, plasma, oral, 4 Cogni.Q vegicaps, subject S9 (158 lb), read-out: AUC0-48h) was 20.6 nmol·h/L, the Cmax (human, plasma, oral, 4 Cogni.Q vegicaps, subject S9 (158 lb), read-out: Cmax) was 2.4 nM and the half-life (human, plasma, oral, 4 Cogni.Q vegicaps, subject S9 (158 lb), read-out: Terminal t1/2, h (converted)) was 24 h. The Tmax (human, plasma, oral, 4 Cogni.Q vegicaps, subject S9 (158 lb), read-out: Tmax) was 1 h.
